The results in this text go back to paper PMC6337512 (Molecules, 2018).

In brackets after ≈: the same amount, converted by molar mass.

The nature of series [1]: Solubility of APIs and THEDES in PBS, excess added, 24 h stirring, UV spectroscopy. The class given is physicochemical. The conditions noted are these: aqueous buffer, thermodynamic from solid; PBS (pH 7.4), 37 °C.
Procedure: The solubility studies were made with the pure APIs and THEDES. For performing these assays were used a PBS solution, and was added an excess of API and THEDES to this solution, place at 37 °C, under stirring for 24 h, for simulate physiological conditions. The determination of the API solubility was made by UV spectroscopy in 1 mL quartz cuvettes, using a Lambda 35 UV/VIS spectrometer (PerkinElmer, Villepinte, France) and the PerkinElmer UV WinLab software (PerkinElmer, Villepinte, France). […] The calibration curve was made using the respective APIs as standard for quantification.
The conditions of series [2]: solutions in culture media RPMI.
A short description of series [3]: Permeability and diffusion in Franz diffusion cells through PES-U membrane.

Broadly, the solubility is how much of the substance goes into solution per volume. Low values mean a poorly soluble substance, high ones a readily soluble substance. By Papp is commonly meant the rate of passage across a membrane or cell layer, normalised by area and donor concentration. A lower Papp goes with slow passage. As for `CC[C@@H](CO)NCCN[C@@H](CC)CO` [Ethambutol, ethambutol], the solubility at 24 h in series [1] is 4640 ± 70 µg/mL (≈ 22.7 mM). For the same compound, the pH in series [2] was found to be 6.21. Besides, the Papp at 180 min in series [3] worked out at 819 ± 30.6 ×10⁻⁶ cm/s.
The compound `N=C(N)NCCC[C@H](N)C(=O)O` [L-Arginine, L-arginine] gave a pH in series [2] of 10.43.
